What was measured:
IKZF3 protein = IKZF3 protein (Homo sapiens (Human), UniProt Q96SW2+Q9UKT9); assay: Western-blot assay of substrate protein degradation in hPBMC, IKZF3; assay type: cell-based; conditions: for residual substrate protein level, IKZF3: hPBMC cells, compound 500 nM, 24 hours, Western blot
Experimental: (§1) After treating the cells with the compounds for 24 hours, the cells were collected and lysed using RIPA protein lysate containing phosphatase inhibitors. The lysate was then placed on ice for 30-60 minutes and centrifuged. The supernatant was aspirated as the extracted total cell protein. The protein concentration of the supernatant was determined using the conventional BCA (Bicinchoninic Acid) assay. The supernatant was then mixed with 4×SDS sample loading buffer, denatured at 95° C. for 5 minutes, and then subjected to SDS-PAGE electrophoresis on a polyacrylamide gel, followed by transfer to a nitrocellulose membrane (NC membrane). The membrane was blocked with blocking buffer at room temperature for 1-2 hours, and then antibody incubation and detection were carried out according to the antibody instructions provided by Cell Signaling Technology.
(§2) Half-Maximal Degradation Concentration value (the drug concentration required for degrading proteins by 50%, abbreviated as DC50) reads method: comparing the gray values of the Western blotting bands for the drug treatment with the gray values of the Western blotting band for the DMSO control, and reading the drug concentration range corresponding to the gray value of the Western blotting bands for the drug treatment which is equal to half of the gray value of the Western blotting band for the DMSO control.
(§3) DC50 value could also be calculated as follows: using software ImageJ to quantify the gray values of the Western blotting bands for the drug treatment, fitting the relationship curve between drug concentrations and gray values, and from the fitted curve, calculating the drug concentration corresponding to half of the gray value of the Western blotting band for the DMSO control.

[1] = target: human Cereblon WT GST-tagged protein (Homo sapiens (Human), UniProt Q96SW2); assay: CRBN-binding affinity, HTRF (CEREBLON BINDING kit)
Outline: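 HTRF competition readout: compounds compete with a thalidomide-Re conjugate for GST-tagged wild-type human CRBN detected via Eu-labelled anti-GST antibody. Inhibition rate derived relative to protein-free blank wells.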

GSPT1 protein = GSPT1 protein (Homo sapiens (Human), UniProt P15170+Q96SW2); assay: Western-blot assay of substrate protein degradation in hPBMC, GSPT1; assay type: cell-based; conditions: for residual substrate protein level, GSPT1: hPBMC cells, compound 500 nM, 24 hours, Western blot
Experimental: as §1, §2, §3

IKZF1 protein = IKZF1 protein (Homo sapiens (Human), UniProt Q13422+Q96SW2); assay: Western-blot assay of substrate protein degradation in hPBMC, IKZF1; assay type: cell-based; conditions: for residual substrate protein level, IKZF1: hPBMC cells, compound 500 nM, 24 hours, Western blot
Experimental: as §1, §2, §3

[2] = hPBMC, 24 h, serially diluted 0.03-1000 nM

IKZF1 protein, sequence (Q13422 whole entry): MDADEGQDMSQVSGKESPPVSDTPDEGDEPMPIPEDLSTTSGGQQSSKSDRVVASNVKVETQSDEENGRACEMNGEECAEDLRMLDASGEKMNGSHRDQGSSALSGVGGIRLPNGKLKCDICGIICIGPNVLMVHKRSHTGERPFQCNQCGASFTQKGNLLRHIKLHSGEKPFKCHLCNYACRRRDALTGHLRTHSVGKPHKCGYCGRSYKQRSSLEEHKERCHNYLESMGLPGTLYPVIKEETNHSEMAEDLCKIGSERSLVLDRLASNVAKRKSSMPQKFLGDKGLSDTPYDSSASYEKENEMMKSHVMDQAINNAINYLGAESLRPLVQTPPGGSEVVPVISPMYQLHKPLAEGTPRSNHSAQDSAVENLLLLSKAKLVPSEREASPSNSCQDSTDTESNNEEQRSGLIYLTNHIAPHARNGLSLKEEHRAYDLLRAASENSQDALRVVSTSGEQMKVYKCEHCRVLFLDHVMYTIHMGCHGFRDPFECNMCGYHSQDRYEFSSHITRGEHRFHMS
IKZF1 protein, sequence (Q96SW2 whole entry): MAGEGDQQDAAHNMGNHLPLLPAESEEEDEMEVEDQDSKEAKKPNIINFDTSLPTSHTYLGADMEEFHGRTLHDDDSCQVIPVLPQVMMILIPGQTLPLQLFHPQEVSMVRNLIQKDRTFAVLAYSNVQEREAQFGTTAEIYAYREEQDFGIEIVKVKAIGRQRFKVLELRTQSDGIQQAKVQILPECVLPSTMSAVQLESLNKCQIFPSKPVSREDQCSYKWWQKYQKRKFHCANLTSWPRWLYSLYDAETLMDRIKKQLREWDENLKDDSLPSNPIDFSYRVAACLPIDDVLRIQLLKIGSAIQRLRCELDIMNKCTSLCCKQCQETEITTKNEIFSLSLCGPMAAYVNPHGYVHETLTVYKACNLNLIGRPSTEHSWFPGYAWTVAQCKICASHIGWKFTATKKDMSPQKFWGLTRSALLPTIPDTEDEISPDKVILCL
IKZF1 protein, sequence (Q16531 whole entry partner): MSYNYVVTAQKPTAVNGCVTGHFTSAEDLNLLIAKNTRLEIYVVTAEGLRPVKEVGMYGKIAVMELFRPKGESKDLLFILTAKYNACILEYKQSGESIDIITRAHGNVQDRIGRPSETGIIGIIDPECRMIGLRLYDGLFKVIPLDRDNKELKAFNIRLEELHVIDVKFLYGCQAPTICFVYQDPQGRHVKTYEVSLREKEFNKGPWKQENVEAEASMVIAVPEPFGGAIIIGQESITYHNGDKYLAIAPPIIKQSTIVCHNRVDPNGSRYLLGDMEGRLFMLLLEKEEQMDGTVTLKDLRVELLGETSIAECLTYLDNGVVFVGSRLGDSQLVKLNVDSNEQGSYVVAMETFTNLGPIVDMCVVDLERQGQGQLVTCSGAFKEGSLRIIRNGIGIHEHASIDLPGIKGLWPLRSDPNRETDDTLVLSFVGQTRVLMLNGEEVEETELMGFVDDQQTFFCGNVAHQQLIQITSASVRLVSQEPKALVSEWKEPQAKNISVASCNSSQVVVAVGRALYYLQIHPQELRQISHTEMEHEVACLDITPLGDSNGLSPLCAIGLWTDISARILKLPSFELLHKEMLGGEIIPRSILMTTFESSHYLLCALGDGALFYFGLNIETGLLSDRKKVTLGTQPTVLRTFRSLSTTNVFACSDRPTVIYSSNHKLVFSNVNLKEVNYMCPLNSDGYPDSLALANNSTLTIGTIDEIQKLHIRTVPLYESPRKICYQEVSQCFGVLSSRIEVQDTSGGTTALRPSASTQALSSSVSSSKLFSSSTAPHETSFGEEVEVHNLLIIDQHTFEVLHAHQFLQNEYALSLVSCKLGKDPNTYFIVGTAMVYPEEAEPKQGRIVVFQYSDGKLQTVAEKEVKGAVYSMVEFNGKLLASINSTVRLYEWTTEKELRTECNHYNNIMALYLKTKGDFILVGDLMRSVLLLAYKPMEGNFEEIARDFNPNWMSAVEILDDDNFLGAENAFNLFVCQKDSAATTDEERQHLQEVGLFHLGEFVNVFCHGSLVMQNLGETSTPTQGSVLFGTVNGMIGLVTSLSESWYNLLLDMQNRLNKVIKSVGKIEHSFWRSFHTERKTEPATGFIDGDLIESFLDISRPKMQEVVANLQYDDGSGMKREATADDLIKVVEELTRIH
GSPT1 protein, sequence (P15170 whole entry): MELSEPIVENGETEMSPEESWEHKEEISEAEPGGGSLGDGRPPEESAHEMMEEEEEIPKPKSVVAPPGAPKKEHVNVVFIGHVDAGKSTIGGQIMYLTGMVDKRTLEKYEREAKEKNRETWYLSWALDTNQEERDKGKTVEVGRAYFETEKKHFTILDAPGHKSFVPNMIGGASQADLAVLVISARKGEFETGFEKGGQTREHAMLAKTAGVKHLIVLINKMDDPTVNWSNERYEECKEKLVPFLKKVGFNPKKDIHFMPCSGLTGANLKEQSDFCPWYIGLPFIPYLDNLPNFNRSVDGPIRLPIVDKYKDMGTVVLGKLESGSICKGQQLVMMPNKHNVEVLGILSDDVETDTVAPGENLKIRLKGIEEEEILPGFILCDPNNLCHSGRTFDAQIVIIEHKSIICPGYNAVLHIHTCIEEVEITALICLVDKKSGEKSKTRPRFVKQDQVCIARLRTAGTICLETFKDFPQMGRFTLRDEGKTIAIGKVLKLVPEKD
GSPT1 protein, sequence (Q96SW2 whole entry): as the sequence (Q96SW2 whole entry) above
GSPT1 protein, sequence (Q16531 whole entry partner): as the sequence (Q16531 whole entry partner) above
human Cereblon WT GST-tagged protein, sequence (Q96SW2 whole entry): as the sequence (Q96SW2 whole entry) above
IKZF3 protein, sequence (Q9UKT9 whole entry): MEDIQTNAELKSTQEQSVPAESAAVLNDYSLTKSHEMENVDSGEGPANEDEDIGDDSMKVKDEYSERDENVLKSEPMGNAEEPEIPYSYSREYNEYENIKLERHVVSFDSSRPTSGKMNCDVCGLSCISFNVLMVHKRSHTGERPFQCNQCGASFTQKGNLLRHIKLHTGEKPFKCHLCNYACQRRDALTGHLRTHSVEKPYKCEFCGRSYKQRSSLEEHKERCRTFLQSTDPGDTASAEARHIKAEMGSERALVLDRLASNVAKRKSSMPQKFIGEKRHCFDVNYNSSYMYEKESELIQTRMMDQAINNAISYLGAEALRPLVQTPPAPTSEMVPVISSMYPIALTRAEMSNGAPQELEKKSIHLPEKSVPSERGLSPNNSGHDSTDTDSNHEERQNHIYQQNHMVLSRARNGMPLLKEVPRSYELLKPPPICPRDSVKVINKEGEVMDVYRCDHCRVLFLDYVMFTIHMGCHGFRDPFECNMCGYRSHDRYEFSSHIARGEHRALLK
IKZF3 protein, sequence (Q96SW2 whole entry): as the sequence (Q96SW2 whole entry) above
IKZF3 protein, sequence (Q16531 whole entry partner): as the sequence (Q16531 whole entry partner) above

| SMILES | IC50 [1] | concentration at which significant degradation effects on IKZF3 protein are exhibited (FIG. 1) (IKZF3 protein; [2]) | concentration at which significant degradation effects on GSPT1 protein are exhibited (FIG. 1) (GSPT1 protein; [2]) | concentration at which significant degradation effects on IKZF1 protein are exhibited (FIG. 1) (IKZF1 protein; [2]) | residual substrate protein level, IKZF3 (IKZF3 protein) | residual substrate protein level, GSPT1 (GSPT1 protein) | residual substrate protein level, IKZF1 (IKZF1 protein) |
| --- | --- | --- | --- | --- | --- | --- | --- |
| CC1(C)CCC(CN2CC3CCC(C2)N3Cc2ccc3c(c2F)CN(C2CCC(=O)NC2=O)C3=O)=C(c2ccc(Cl)cc2)C1 (centres unmarked) [GT-03890, 3-(5-((3-((4′-chloro-5,5-dimethyl-3,4,5,6-tetrahydro-[1,1′-biphenyl]-2-yl)methyl)-3,8-diazabicyclo[3.2.1]octan-8-yl)methyl)-4-fluoro-1-oxoisoindolin-2-yl)piperidine-2,6-dione] | 510 nM | – | – | – | A (A represents a residual substrate protein level of <50%) | A (A represents a residual substrate protein level of <50%) | B (B represents a residual substrate protein level of >50%) |
| CC1(C)CCC(CN2C[C@@H]3C[C@H]2CN3Cc2ccc3c(c2)CN(C2CCC(=O)NC2=O)C3=O)=C(c2ccc(Cl)cc2)C1 (stereo partly drawn) [GT-03997, 3-(5-(((1S,4S)-5-((4′-chloro-5,5-dimethyl-3,4,5,6-tetrahydro-[1,1′-biphenyl]-2-yl)methyl)-2,5-diazabicyclo[2.2.1]heptan-2-yl)methyl)-1-oxoisoindolin-2-yl)piperidine-2,6-dione] | 770 nM | – | – | – | A (A represents a residual substrate protein level of <50%) | B (B represents a residual substrate protein level of >50%) | A (A represents a residual substrate protein level of <50%) |
| CC1(C)CCC(CN2CC3CCC2CN3Cc2ccc3c(c2)CN(C2CCC(=O)NC2=O)C3=O)=C(c2ccc(Cl)cc2)C1 (centres unmarked) [GT-04167, 3-(5-((5-((4′-chloro-5,5-dimethyl-3,4,5,6-tetrahydro-[1,1′-biphenyl]-2-yl)methyl)-2,5-diazabicyclo[2.2.2]octan-2-yl)methyl)-1-oxoisoindolin-2-yl)piperidine-2,6-dione] | 660 nM | – | – | – | B (B represents a residual substrate protein level of >50%) | B (B represents a residual substrate protein level of >50%) | B (B represents a residual substrate protein level of >50%) |
| O=C1CCC(N2Cc3cc(CN4CCN(C(=O)c5ccccc5-c5ccc(F)cc5)CC4)ccc3C2=O)C(=O)N1 (centres unmarked) [GT-04194, 3-(5-((4-(4′-fluoro-[1,1′-biphenyl]-2-carbonyl)piperazin-1-yl)methyl)-1-oxoisoindolin-2-yl)piperidine-2,6-dione] | 1160 nM | below 30 nM | below 30 nM | below 30 nM | A (A represents a residual substrate protein level of <50%) | A (A represents a residual substrate protein level of <50%) | B (B represents a residual substrate protein level of >50%) |
| CC1(C)CCC(CN2CC3CC(C2)N3Cc2ccc3c(c2)C(=O)N(C2CCC(=O)NC2=O)C3=O)=C(c2ccc(Cl)cc2)C1 (centres unmarked) [GT-05368, 5-((3-((4′-chloro-5,5-dimethyl-3,4,5,6-tetrahydro-[1,1′-biphenyl]-2-yl)methyl)-3,6-diazabicyclo[3.1.1]heptan-6-yl)methyl)-2-(2,6-dioxopiperidin-3-yl)isoindoline-1,3-dione] | 1800 nM | – | – | – | A (A represents a residual substrate protein level of <50%) | A (A represents a residual substrate protein level of <50%) | B (B represents a residual substrate protein level of >50%) |
| CC1(C)CCC(CN2CCN(Cc3ccc4c(c3)C(=O)N(C3CCC(=O)NC3=O)C4=O)CC2)=C(c2ccc(F)cc2)C1 (centres unmarked) [GT-05395, 2-(2,6-dioxopiperidin-3-yl)-5-((4-((4′-fluoro-5,5-dimethyl-3,4,5,6-tetrahydro-[1,1′-biphenyl]-2-yl)methyl)piperazin-1-yl)methyl)isoindoline-1,3-dione] | 1610 nM | – | – | – | A (A represents a residual substrate protein level of <50%) | A (A represents a residual substrate protein level of <50%) | B (B represents a residual substrate protein level of >50%) |
| CC1(C)CCC(CN2CC3CC(C2)N3Cc2ccc3c(c2)CN(C2CCC(=O)NC2=O)C3=O)=C(c2ccc(F)cc2)C1 (centres unmarked) [GT-05399, 3-(5-((3-((4′-fluoro-5,5-dimethyl-3,4,5,6-tetrahydro-[1,1′-biphenyl]-2-yl)methyl)-3,6-diazabicyclo[3.1.1]heptan-6-yl)methyl)-1-oxoisoindolin-2-yl)piperidine-2,6-dione] | 430 nM | – | – | – | B (B represents a residual substrate protein level of >50%) | A (A represents a residual substrate protein level of <50%) | B (B represents a residual substrate protein level of >50%) |

More lines, in order of falling IC50 [1], values ahead:

| IC50 [1] | concentration at which significant degradation effects on IKZF3 protein are exhibited (FIG. 1) (IKZF3 protein; [2]) | concentration at which significant degradation effects on GSPT1 protein are exhibited (FIG. 1) (GSPT1 protein; [2]) | concentration at which significant degradation effects on IKZF1 protein are exhibited (FIG. 1) (IKZF1 protein; [2]) | SMILES | residual substrate protein level, IKZF3 (IKZF3 protein) | residual substrate protein level, GSPT1 (GSPT1 protein) | residual substrate protein level, IKZF1 (IKZF1 protein) |
| --- | --- | --- | --- | --- | --- | --- | --- |
| 550 nM | – | – | – | CC1(C)CCC(CN2CC3CCC2CN3Cc2ccc3c(c2F)CN(C2CCC(=O)NC2=O)C3=O)=C(c2ccc(Cl)cc2)C1 (centres unmarked) [GT-04168, 3-(5-((5-((4′-chloro-5,5-dimethyl-3,4,5,6-tetrahydro-[1,1′-biphenyl]-2-yl)methyl)-2,5-diazabicyclo[2.2.2]octan-2-yl)methyl)-4-fluoro-1-oxoisoindolin-2-yl)piperidine-2,6-dione] | B (B represents a residual substrate protein level of >50%) | A (A represents a residual substrate protein level of <50%) | B (B represents a residual substrate protein level of >50%) |
| 480 nM | – | – | – | O=C1CCC(N2Cc3cc(C=C4CN(Cc5ccccc5-c5ccc(Cl)cc5)C4)ccc3C2=O)C(=O)N1 (centres unmarked) [GT-03881, 3-(5-((1-((4′-chloro-[1,1′-biphenyl]-2-yl)methyl)azetidin-3-ylidene)methyl)-1-oxoisoindolin-2-yl)piperidine-2,6-dione] | B (B represents a residual substrate protein level of >50%) | A (A represents a residual substrate protein level of <50%) | B (B represents a residual substrate protein level of >50%) |
| 460 nM | – | – | – | O=C1CCC(N2Cc3cc(CN4CCN(CC5=C(c6ccc(F)cc6)CCCC5)CC4)ccc3C2=O)C(=O)N1 (centres unmarked) [GT-04193, 3-(5-((4-((4′-fluoro-3,4,5,6-tetrahydro-[1,1′-biphenyl]-2-yl)methyl)piperazin-1-yl)methyl)-1-oxoisoindolin-2-yl)piperidine-2,6-dione] | A (A represents a residual substrate protein level of <50%) | A (A represents a residual substrate protein level of <50%) | A (A represents a residual substrate protein level of <50%) |
| 460 nM | – | – | – | O=C1CCC(N2Cc3cc(CN4CCN(Cc5ccncc5-c5ccc(Cl)cc5)CC4)ccc3C2=O)C(=O)N1 (centres unmarked) [GT-04275, 3-(5-((4-((3-(4-chlorophenyl)pyridin-4-yl)methyl)piperazin-1-yl)methyl)-1-oxoisoindolin-2-yl)piperidine-2,6-dione] | A (A represents a residual substrate protein level of <50%) | A (A represents a residual substrate protein level of <50%) | A (A represents a residual substrate protein level of <50%) |

Reference: patent US20260028326A1, “COMPOUND BASED ON ISOINDOLINE-SUBSTITUTED GLUTARIMIDE BACKBONE AND USE THEREOF” (GLUETACS THERAPEUTICS (SHANGHAI) CO., LTD., priority 2022, published 2026)
